{"source": "paper PMC6475383", "about": "(Proceedings of the National Academy of Sciences of the …, 2019)", "key": {"[1]": {"test_system": "KRN/I-Ag7 serum transfer-induced arthritis", "experiment": "KRN arthritis model", "assay_type": "in vivo, C57BL/6 mice"}, "sheep erythrocytes": {"test_system": "sheep erythrocytes", "experiment": "C3G patient serum-induced hemolysis of sheep erythrocytes", "assay_type": "cell-based", "conditions": "0.15 µM, 20% patient serum, EGTA"}, "[2]": {"test_system": "lectin complement pathway", "experiment": "Wieslab lectin pathway assay in human serum", "assay_type": "biochemical", "conditions": "up to 100 µM"}, "PNH erythrocytes [3]": {"test_system": "PNH erythrocytes", "experiment": "C3-opsonization of PNH erythrocytes", "assay_type": "cell-based, human", "conditions": "acidified serum, 1 µM, flow cytometry"}, "PNH erythrocytes [4]": {"test_system": "PNH erythrocytes", "experiment": "Ex vivo hemolysis of PNH erythrocytes"}, "[5]": {"test_system": "C3 convertase activity in serum of C3G patients", "experiment": "Inhibition of C3 cleavage in C3G patient serum", "assay_type": "biochemical", "conditions": "patient serum mixed with normal human serum, Mg2+-EGTA"}, "[6]": {"test_system": "receptors, ion channels, kinases, and proteases", "experiment": "Broad assay panel", "conditions": "up to 10 µM"}, "[7]": {"test_system": "classical complement pathway", "experiment": "Wieslab classical pathway assay in human serum", "assay_type": "biochemical", "conditions": "up to 100 µM"}, "AP activation in plasma": {"test_system": "AP activation in plasma", "experiment": "LPS-induced AP activation in mice", "assay_type": "in vivo, C57BL/6J mice", "conditions": "30 mg/kg oral, 3.5 h after i.p. LPS"}, "[8]": {"test_system": "passive Heymann nephritis", "experiment": "Passive Heymann nephritis", "assay_type": "in vivo, Sprague-Dawley rats", "conditions": "rats"}, "[9]": {"conditions": "prophylactic and therapeutic dosing, end of study"}}, "data": [{"compound": "CCO[C@H]1CCN(Cc2c(OC)cc(C)c3[nH]ccc23)[C@H](c2ccc(C(=O)O)cc2)C1", "note": "[LNP023]", "values": [{"measurement": "disease protection", "setting": "[1]; mice, 60 mg/kg b.i.d. oral", "value": "Full disease protection"}, {"measurement": "disease protection", "setting": "[1]; mice, 180 mg/kg b.i.d. oral", "value": "Full disease protection"}, {"measurement": "overall clinical score", "setting": "[1]; mice, 20, 60, and 180 mg/kg b.i.d. oral", "value": "highly efficacious"}, {"measurement": "complement activation in the joints (Ba, C3d, C5a)", "setting": "[1]; mice, all doses (20, 60, 180 mg/kg b.i.d.)", "value": "significantly inhibited complement activation"}, {"measurement": "joint histology: inflammatory cell infiltration, bone erosion, proteoglycan loss", "setting": "[1]; mice, all treated animals, after 6 d of treatment", "value": "strongly blocked"}, {"measurement": "C3G serum-induced hemolysis of sheep erythrocytes", "setting": "sheep erythrocytes", "value": "potently blocked hemolysis"}, {"measurement": "inhibition of lectin complement pathway activation", "setting": "[2]", "value": "no inhibition"}, {"measurement": "C3 deposition on the surface of CD59-negative erythrocytes", "setting": "PNH erythrocytes [3]", "value": "able to block C3 deposition"}, {"measurement": "IC50", "setting": "PNH erythrocytes [4]; Homo sapiens, Erythrocyte, 24 h, read-out: IC50 lysis of PNH erythrocytes", "value": 400, "unit": "nM"}, {"measurement": "extent of inhibition of hemolysis of PNH erythrocytes", "setting": "PNH erythrocytes [4]; dose-response, acidified NHS, FACS", "value": "full inhibition"}, {"measurement": "C3 cleavage in C3G patient sera", "setting": "[5]", "value": "blocked abnormal C3 cleavage"}, {"measurement": "effects in a broad assay panel of receptors, ion channels, kinases, and proteases", "setting": "[6]", "value": "no significant effects"}, {"measurement": "inhibition of classical complement pathway activation", "setting": "[7]", "value": "no inhibition"}, {"measurement": "complement activation in plasma (C3d/iC3b) after LPS", "setting": "AP activation in plasma", "value": "effectively blocked complement activation"}, {"measurement": "glomerular C3 deposition", "setting": "[8]; after compound treatment", "value": "near-complete inhibition of complement activation"}, {"measurement": "glomerulopathy", "setting": "[8]; [9]", "value": "greatly attenuate"}, {"measurement": "overall histopathology score", "setting": "[8]; [9]", "value": "significantly improve"}, {"measurement": "tubular degeneration", "setting": "[8]; [9]", "value": "prevent tubular degeneration"}, {"measurement": "disease progression after onset of proteinuria", "setting": "[8]; therapeutic dosing from day 6", "value": "immediately halted further disease progression"}]}]}
